The results in this text go back to PubChem BioAssay AID248 (DTP/NCI, 2004).

Several values for one entry are separate records, joined by “and”; a condition that tells them apart may be missing. Equal values may be shown once. Inconclusive results and toxic doses are left out.

In this assay the test system is L1210 leukemia ip in BDF1 mice, survival T/C. Briefly: NCI In Vivo Anticancer Drug Screen. Data for tumor model L1210 Leukemia (intraperitoneal) in B6D2F1 (BDF1) mice. Particulars: endpoint: mean survival time, higher = longer survival. The essentials: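 Tumor cells were implanted, animals were treated, and survival was followed. The result divides the treated measurement by the vehicle-control measurement.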

[1] abbreviates: dose: 100.0 mg/kg/injection, schedule: Q01DX009 (ip), vehicle: saline with Tween-80.
Where [2] appears, read: dose: 200.0 mg/kg/injection, schedule: Q01DX009 (ip), vehicle: saline with Tween-80.
[3] abbreviates: dose: 100.0 mg/kg/injection, schedule: Q01DX001 (ip), vehicle: saline.
The mark [4] stands for this setting: dose: 50.0 mg/kg/injection, schedule: Q01DX009 (ip), vehicle: saline.
The mark [5] stands for this setting: dose: 50.0 mg/kg/injection, schedule: Q01DX009 (ip), vehicle: saline with Tween-80.
[6] abbreviates: dose: 100.0 mg/kg/injection, schedule: Q01DX001 (ip), vehicle: carboxymethylcellulose (CMC).
[7] abbreviates: dose: 200.0 mg/kg/injection, schedule: Q01DX001 (ip), vehicle: carboxymethylcellulose (CMC).
[8] abbreviates: dose: 400.0 mg/kg/injection, schedule: Q01DX001 (ip), vehicle: carboxymethylcellulose (CMC).
The mark [9] stands for this setting: dose: 12.5 mg/kg/injection, schedule: Q01DX009 (ip), vehicle: saline.
The mark [10] stands for this setting: dose: 100.0 mg/kg/injection, schedule: Q04DX003 (ip), vehicle: Klucel (hydroxypropylcellulose) (HPC).
[11] abbreviates: dose: 200.0 mg/kg/injection, schedule: Q04DX003 (ip), vehicle: Klucel (hydroxypropylcellulose) (HPC).
Setting [12] is: dose: 100.0 mg/kg/injection, schedule: Q04DX002 (ip), vehicle: saline.

With `CCOC(=O)C(C(=O)OCC)C(C)c1ccc([N+](=O)[O-])cc1` (stereo not drawn), the T/C under setting [1] is 106 % of control; the T/C (dose: 100.0 mg/kg/injection, schedule: Q04DX002 (ip), vehicle: saline with Tween-80) is 100 % of control; the T/C under setting [2] is 106 % of control; the T/C (dose: 200.0 mg/kg/injection, schedule: Q04DX002 (ip), vehicle: saline with Tween-80) is 103 % of control; the T/C (dose: 400.0 mg/kg/injection, schedule: Q01DX009 (ip), vehicle: saline with Tween-80) was 113 % of control; the T/C (dose: 400.0 mg/kg/injection, schedule: Q04DX002 (ip), vehicle: saline with Tween-80) was 92 % of control.

With `O=C(OCC1OC(c2ccccc2)OC1C1OC(c2ccccc2)OC1COC(=O)c1ccccc1)c1ccccc1` (stereo not drawn), the T/C is 103 % of control under setting [3]; 110 % of control (dose: 200.0 mg/kg/injection, schedule: Q01DX001 (ip), vehicle: saline); 110 % of control (dose: 400.0 mg/kg/injection, schedule: Q01DX001 (ip), vehicle: saline).

As to `CC(C)C(NC(=O)CCNC(=O)OCc1ccccc1)C(=O)OCc1ccccc1` (stereo not drawn), the T/C is 93 % of control (dose: 100.0 mg/kg/injection, schedule: Q04DX003 (ip), vehicle: saline with Tween-80); 92 % of control (dose: 200.0 mg/kg/injection, schedule: Q04DX003 (ip), vehicle: saline with Tween-80); 95 % of control (dose: 400.0 mg/kg/injection, schedule: Q04DX003 (ip), vehicle: saline with Tween-80).

For the compound `CCOC(=O)c1ccc2cc(C(=O)c3ccccc3)ccc2n1`, the T/C runs as follows: under setting [4], 94 % of control; (dose: 100.0 mg/kg/injection, schedule: Q01DX009 (ip), vehicle: saline) 100 % of control; (dose: 100.0 mg/kg/injection, schedule: Q04DX003 (ip), vehicle: saline) 91 % of control; (dose: 200.0 mg/kg/injection, schedule: Q04DX003 (ip), vehicle: saline) 91 % of control; (dose: 400.0 mg/kg/injection, schedule: Q04DX003 (ip), vehicle: saline) 93 % of control.

On to `CC1CSCC(C)O1` (stereo not drawn), for which the T/C runs as follows: under setting [5], 95 % of control; under setting [1], 284 % of control; under setting [2], 95 % of control.

As to `CC(O)CNC1CCC(C)CC1` (stereo not drawn), the T/C runs as follows: (dose: 75.0 mg/kg/injection, schedule: Q01DX001 (ip), vehicle: acid diluted with saline) 96 % of control; (dose: 150.0 mg/kg/injection, schedule: Q01DX001 (ip), vehicle: acid diluted with saline) 100 % of control.

For `CCOC(=O)N1CCCCC1`, the T/C reads like this: (dose: 50.0 mg/kg/injection, schedule: Q01DX001 (ip), vehicle: carboxymethylcellulose (CMC)) 95 % of control; under setting [6], 95 % of control; under setting [7], 101 % of control and 93 % of control; under setting [8], 104 % of control and 90 % of control.

For the compound `Cc1ccc(S(=O)(=O)OC2CN3CCC2CC3)cc1` (stereo not drawn), the T/C is 95 % of control under setting [9]; 100 % of control (dose: 25.0 mg/kg/injection, schedule: Q01DX009 (ip), vehicle: saline); 101 % of control and 102 % of control under setting [4].

Consider `O=C(Nc1cccc(C(F)(F)F)c1)N(C1CCCCC1)C1CCCCC1`, for which the T/C runs as follows: (dose: 100.0 mg/kg/injection, schedule: Q01DX009 (ip), vehicle: Klucel (hydroxypropylcellulose) (HPC)) 92 % of control; (dose: 200.0 mg/kg/injection, schedule: Q01DX009 (ip), vehicle: Klucel (hydroxypropylcellulose) (HPC)) 87 % of control; (dose: 400.0 mg/kg/injection, schedule: Q01DX009 (ip), vehicle: Klucel (hydroxypropylcellulose) (HPC)) 87 % of control.

As to `O=C(CC(C(=O)O)N1CCOCC1)c1ccccc1` (stereo not drawn), the T/C reads like this: (dose: 50.0 mg/kg/injection, schedule: Q01DX009 (ip), vehicle: saline sonified) 99 % of control; (dose: 100.0 mg/kg/injection, schedule: Q01DX009 (ip), vehicle: saline sonified) 97 % of control; under setting [10], 97 % of control; (dose: 200.0 mg/kg/injection, schedule: Q01DX009 (ip), vehicle: saline sonified) 97 % of control; under setting [11], 92 % of control.

On to `Cc1ccc([As+](c2ccccc2)(c2ccccc2)c2ccccc2)cc1`, for which the T/C reads like this: (dose: 5.0 mg/kg/injection, schedule: Q01DX001 (ip), vehicle: saline) 101 % of control; (dose: 10.0 mg/kg/injection, schedule: Q01DX001 (ip), vehicle: saline) 95 % of control; (dose: 20.0 mg/kg/injection, schedule: Q01DX001 (ip), vehicle: saline) 96 % of control.

For the compound `CCSc1nc(C=O)c(Cc2ccccc2)c(=O)[nH]1`, the T/C under setting [10] is 101 % of control; the T/C under setting [11] was 103 % of control; the T/C (dose: 400.0 mg/kg/injection, schedule: Q04DX003 (ip), vehicle: Klucel (hydroxypropylcellulose) (HPC)) was 98 % of control.

Consider `C(=P(c1ccccc1)(c1ccccc1)c1ccccc1)[P+](c1ccccc1)(c1ccccc1)c1ccccc1`, for which the T/C is 102 % of control and 109 % of control (dose: 0.78 mg/kg/injection, schedule: Q01DX009 (ip), vehicle: saline); 98 % of control and 88 % of control (dose: 1.56 mg/kg/injection, schedule: Q01DX009 (ip), vehicle: saline); 100 % of control (dose: 3.12 mg/kg/injection, schedule: Q01DX009 (ip), vehicle: saline); 90 % of control (dose: 3.13 mg/kg/injection, schedule: Q01DX001 (ip), vehicle: saline); 97 % of control (dose: 3.13 mg/kg/injection, schedule: Q04DX002 (ip), vehicle: saline); 102 % of control (dose: 3.13 mg/kg/injection, schedule: Q04DX003 (ip), vehicle: saline). Also, the T/C (dose: 6.0 mg/kg/injection, schedule: Q01DX009 (ip), vehicle: saline) was 106 % of control; the T/C (dose: 6.25 mg/kg/injection, schedule: Q01DX001 (ip), vehicle: saline) is 100 % of control; the T/C (dose: 6.25 mg/kg/injection, schedule: Q01DX009 (ip), vehicle: saline) is 117 % of control; the T/C (dose: 6.25 mg/kg/injection, schedule: Q04DX002 (ip), vehicle: saline) was 96 % of control and 100 % of control; the T/C (dose: 6.25 mg/kg/injection, schedule: Q04DX003 (ip), vehicle: saline) was 106 % of control; the T/C (dose: 9.3 mg/kg/injection, schedule: Q01DX009 (ip), vehicle: saline) was 95 % of control. Moreover, the T/C (dose: 12.5 mg/kg/injection, schedule: Q01DX001 (ip), vehicle: saline) was 97 % of control; the T/C under setting [9] is 115 % of control and 117 % of control; the T/C (dose: 12.5 mg/kg/injection, schedule: Q04DX002 (ip), vehicle: saline) was 97 % of control and 99 % of control; the T/C (dose: 12.5 mg/kg/injection, schedule: Q04DX003 (ip), vehicle: saline) was 101 % of control; the T/C (dose: 13.0 mg/kg/injection, schedule: Q01DX009 (ip), vehicle: saline) was 93 % of control; the T/C under setting [12] was 90 % of control. Besides, the T/C (dose: 200.0 mg/kg/injection, schedule: Q04DX002 (ip), vehicle: saline) was 93 % of control.

With `CC(O)C1OC1C(C)O` (stereo not drawn), the T/C is 93 % of control (dose: 25.0 mg/kg/injection, schedule: Q04DX002 (ip), vehicle: saline); 101 % of control (dose: 50.0 mg/kg/injection, schedule: Q04DX002 (ip), vehicle: saline); 112 % of control under setting [12].

For the compound `Cc1cc(C)c(O)c(CN(C)C)c1.[Cu+2]`, the T/C runs as follows: (dose: 50.0 mg/kg/injection, schedule: Q01DX001 (ip), vehicle: saline) 98 % of control; under setting [3], 98 % of control.

Regarding `O=C(N/N=C/c1ccco1)c1ccccc1O`, the T/C was 108 % of control under setting [5], 102 % of control under setting [1] and 97 % of control under setting [2].

Consider `O=C(Nc1ccc(Cl)c(Cl)c1)Nc1ccc(Cl)cc1O`, for which the T/C runs as follows: under setting [6], 100 % of control; under setting [7], 96 % of control; under setting [8], 96 % of control.
